Source: patent US12059472B2 (Bayer Aktiengesellschaft, priority 2016, dated 2024)

How the values were obtained:
[1] = system: NCI-H292: human mucoepidermoid lung carcinoma cells; assay: Cytotoxic effect on NCI-H292 cells (MTT/CTG assay); assay type: cell-based; conditions: Table 2, active metabolites, MTT
Procedure: (§1) The cells were cultivated by the standard method as stated by the American Tissue Culture Collection (ATCC) or the Leibniz-Institut DSMZ-Deutsche Sammlung von Mikroorganismen und Zellkulturen GmbH (DSMZ) for the cell lines in question.
The cells were then incubated in an incubator at 37° C. and 5% carbon dioxide.
(§2) The cells were then incubated in an incubator at 37° C. and 5% carbon dioxide. After 48 h, the medium was replaced. […] To this end, the MTT reagent was incubated with the cells for 4 h, followed by lysis of the cells overnight by addition of the detergent. The dye formed was detected at 570 nm (Infinite M1000 pro, Tecan).

[2] = system: SK-HEP-1: human liver cell cancer line; assay: Cytotoxic effect on SK-HEP-1 cells (MTT assay); assay type: cell-based; conditions: SK-HEP1, Table 2, active metabolites
Procedure: as §1
as §2, with “Tecan). The measured data were used to calculate the IC50 of the growth inhibition using the DRC (dose response curve). The proliferation of cells which were not treated with test substance but were otherwise identically treated was defined as the 100% figure.” for “Tecan).”

[3] = system: KPL4: human breast cancer cell line; assay: Cytotoxic effect on KPL4 cells (MTT assay); assay type: cell-based; conditions: Table 2, active metabolites
Procedure: The analysis of the cytotoxic effects of the ADCs was carried out with various cell lines: • NCI-H292: human mucoepidermoid lung carcinoma cells, ATCC-CRL-1848, standard medium: RPMI 1640 (Biochrom; #FG1215, stab. glutamine)+10% FCS (Sigma; #F2442), TWEAKR-positive; EGFR-positive. • BxPC3: human pancreas carcinoma cells, ATCC-CRL-1687, standard medium: RPMI 1640 (Biochrom; #FG1215, stab. glutamine)+10% FCS (Sigma; #F2442), TWEAKR-positive. • LoVo human colorectal cancer cells, ATCC No. CCL-229, cultivation for MTT assay: standard medium: Kaighn's+L-glutamine (Invitrogen 21127)+10% heat inactivated FCS (from Gibco, No. 10500-064). Cultivation for CTG assay: RPMI 1640 (Biochrom; #FG1215, stab. glutamine)+10% FCS (Sigma #F2442). […]
The cells were cultivated by the standard method, with the growth media specified under C-1a. […] After 96 h, the cell proliferation was detected using the MTT assay (ATCC, Manassas, Virginia, USA, catalogue No. 30-1010K). […] The dye formed was detected at 570 nm (Infinite M1000 pro, Tecan). The measured data were used to calculate the IC50 of the growth inhibition using the DRC (dose response curve). […]

[4] = Caco-2 flux assay for cell permeability; assay type: in vitro ADME; conditions: human; Caco-2, basal to apical, 2 hours
Procedure: The cell permeability of a substance can be investigated by means of in vitro testing in a flux assay using Caco-2 cells [M. D. Troutman and D. R. Thakker, Pharm. […] For this purpose, the cells were cultured for 15-16 days on 24-well filter plates. For the determination of permeation, the respective test substance was applied in a HEPES buffer to the cells either apically (A) or basally (B) and incubated for 2 hours. After 0 hours and after 2 hours, samples were taken from the cis and trans compartments. The samples were separated by HPLC (Agilent 1200, Böblingen, Germany) using reverse phase columns. The HPLC system was coupled via a Turbo Ion Spray Interface to a Triple Quadropol mass spectrometer API 4000 (AB SCIEX Deutschland GmbH, Darmstadt, Germany).
Of critical importance for toxophors which are released intracellularly is the permeability from B to A [Papp (B-A)] and the ratio of Papp (B-A) to Papp (A-B) (efflux ratio): the lower this permeability, the slower the active and passive transport processes of the substance through the monolayer of Caco-2 cells.

## CC(C)(C)[C@H](c1cc(-c2cc(F)ccc2F)cn1Cc1ccccc1)N(CC[C@H](N)C(=O)NCCC(=O)N[C@H](CCC(=O)O)C(=O)O)C(=O)CO [Example M3, N-{(2S)-2-Amino-4-[{(1R)-1-[1-benzyl-4-(2,5-difluorophenyl)-1H-pyrrol-2-yl]-2,2-dimethylpropyl}(glycoloyl)amino]butanoyl}-beta-alanyl-D-glutamic acid]
[1]
  IC50: 174 nM
[2]
  IC50: 14.6 nM
[3]
  IC50: 173 nM
[4]
  Papp B→A at 2 h: 0.27 ×10⁻⁶ cm/s
